The nature of one series: in vitro. The note with it: human, Caco-2. As to the method: To verify the Caco-2 cell monolayers were properly formed, aliquots of the cell buffers were analyzed by fluorescence to determine the transport of the impermeable dye Lucifer Yellow.
Series [1] can be described thus: Stability of colchicine solution, colchicine assay (% label claim). The format is physicochemical. Particulars: API (colchicine drug substance), calculated on the anhydrous, solvent-free basis. As to the method: The colchicine solution is formulated and assayed for colchicine levels. Stability of the claimed formulation was tested at room temperature, 30° C., and 40° C. and assayed for the colchicine. […] The fact that the oral solution was so stable after 6 months at an accelerated temperature (40 degrees Celsius, which corresponds to 24 months at room temperature) was quite surprising. Solutions of colchicine for oral administration to humans have not been developed because they were believed to be too unstable. The data presented herein show for the first time that an oral colchicine solution can remain stable with minimal degradants and thus have a long shelf life consistent with commercial formulations.
The colchicine solution in Table 4 was packaged in a 190 mL HDPE bottle and assayed by HPLC cUSP.
The label claim of the liquid solution is 0.12 mg/ml and the assay results of the active ingredient are reported as percent of label claim. For instance, the label claim of an exemplary colchicine solution of the invention is 0.12 mg/ml. The FDA requirement for stability results for drugs is 90-110% label claim.

The conditions of series [2]: in the presence of glycerin; Habib et al. 1989; cited from earlier work.

Data on 3 molecules can be found in patent US12274751B2, “Composition and method of the use of colchicine oral liquid” (priority 2016, dated 2025).

Some results are limits rather than exact numbers.

In the case of `COCCc1ccc(OCC(O)CNC(C)C)cc1` (centres unmarked) [metoprolol], in “in vitro”, the Papp A→B is 13.7 ×10⁻⁶ cm/s and the basolateral-to-apical permeability (Papp B→A) came to 27.2 ×10⁻⁶ cm/s.
With `CNC(=C[N+](=O)[O-])NCCSCc1ccc(CN(C)C)o1` [ranitidine], the Papp A→B in the series “in vitro” was 0.27 ×10⁻⁶ cm/s.
`COc1cc2c(c(OC)c1OC)-c1ccc(OC)c(=O)cc1[C@@H](NC(C)=O)CC2` [Colchicine, (−)-N-[(7S,12aS)-1,2,3,10-tetramethoxy-9-oxo-5,6,7,9-tetrahydrobenzo[a]heptalen-7-yl]-acetamide]: the “Stability Results (% Label Claim)” value in series [1] is given as 91.8% Label Claim. Moreover, the “loss by photodegradation in solution” value in series [2] is at most 50%.

A word on the Papp A→B: it is the apparent permeability from the apical to the basolateral side of a cell layer. Low values mean slow passage, high ones fast passage. One may read the Papp B→A as how fast a substance crosses the layer from the basolateral side.
